Where two headings read alike, the source gives them in different places.
How the values were obtained:
[1] = target: T1, human Cot catalytic domain (30-397 amino acids) (Homo sapiens, UniProt P41279); assay: High Throughput Cot Biochemical Assay (KinEASE TR-FRET); conditions: read-out: IC50 HTRF
T1 construct: Purified recombinant human Cot catalytic domain (30-397 amino acids) was purchased from Cama Biosciences; purchased Cama Biosciences (so in the source)
In short: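 Phosphorylation of 1 μM XL665-STK3 peptide by 5 nM Cot catalytic domain was measured by time-resolved FRET using a europium […] antibody. ATP was 400 μM; buffer was 10 mM MOPS pH 7.0 with Mg2+ and DTT.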

[2] = test system: TNFα production in LPS-stimulated human monocytes; assay: Cot Monocyte TNFα Cell Based Assay; conditions: Homo sapiens, Monocyte, read-out: EC50 TNF
In short: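 Percent-of-control values derive from TR-FRET ratios of TNFα in spun-down media, referenced to unstimulated and LPS-stimulated wells. Exposure: 1 h compound preincubation, then 50 pg/ml LPS for 4 h, both at 37 °C, with 0.5% final DMSO.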

[3] = Cot KinEASE TR-FRET, 400 μM ATP
[4] = LPS-stimulated human monocytes, TNFα TR-FRET
[5] = Cot biochemical HTRF (KinEASE TR-FRET) assay
[6] = TNFα in LPS-stimulated human monocytes
[7] = Cot KinEASE TR-FRET (HTRF) biochemical assay, 400 μM ATP

T1 sequence (P41279 30-397): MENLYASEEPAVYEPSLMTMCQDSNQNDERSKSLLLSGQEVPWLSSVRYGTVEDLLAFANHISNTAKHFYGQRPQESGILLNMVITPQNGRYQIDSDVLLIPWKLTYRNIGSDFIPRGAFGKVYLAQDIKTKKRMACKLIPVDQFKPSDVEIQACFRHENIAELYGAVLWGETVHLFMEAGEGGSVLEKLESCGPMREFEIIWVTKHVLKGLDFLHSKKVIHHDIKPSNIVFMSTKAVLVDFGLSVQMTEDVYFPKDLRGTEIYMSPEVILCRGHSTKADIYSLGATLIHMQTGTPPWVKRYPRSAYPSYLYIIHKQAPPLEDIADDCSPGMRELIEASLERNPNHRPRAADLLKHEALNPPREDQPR

Compound	IC50 [1, 3]	EC50 [2, 4]	IC50 [1, 5]	EC50 [2, 6]	IC50 [1, 7]
Cc1c(-c2cncn2C)cccc1[C@H](Nc1cc(C#N)c2ncc(C#N)c(NCC(C)(C)C)c2c1)c1cn(C2(C(F)(F)F)CC2)nn1 [Example 1135, (S)-6-(((2-methyl-3-(1-methyl-1H-imidazol-5-yl)phenyl)(1-(1-(trifluoromethyl)cyclopropyl)-1H-1,2,3-triazol-4-yl)methyl)amino)-4-(neopentylamino)quinoline-3,8-dicarbonitrile]	0.002 µM	0.044 µM			
[2H][C@@](Nc1cc(Cl)c2ncc(C#N)c(NC3(c4ccccc4)CC3)c2c1)(c1cn(C2CC2)nn1)c1ccccc1Cl [Example 356]				6.66 µM	0.55 µM
CNC(=O)c1cc([C@H](Nc2cc(Cl)c3ncc(C#N)c(NCC(C)(C)C)c3c2)c2cn(C3(C(F)(F)F)CC3)nn2)ccc1F [Example 1116, (S)-5-(((8-chloro-3-cyano-4-(neopentylamino)quinolin-6-yl)amino)(1-(1-(trifluoromethyl)cyclopropyl)-1H-1,2,3-triazol-4-yl)methyl)-2-fluoro-N-methylbenzamide]	0.038 µM	≥ 1 µM			
[2H][C@](Nc1cc(Cl)c2ncc(C#N)c(NC3CC(C)(C)C3)c2c1)(c1ccc(F)cc1)c1cn(C2CC2)nn1 [Example 205, (S)-8-chloro-6-(((1-cyclopropyl-1H-1,2,3-triazol-4-yl)(4-fluorophenyl)methyl-d)amino)-4-((3,3-dimethylcyclobutyl)amino)quinoline-3-carbonitrile]				0.873 µM	0.038 µM
[2H][C@](Nc1cc(C#N)c2ncc(C#N)c(NCC(C)(C)C)c2c1)(c1ccccc1)c1cn(C2CC2)nn1 [Example 84, (S)-6-(((1-cyclopropyl-1H-1,2,3-triazol-4-yl) (phenyl)methyl-d)amino)-4-(neopentylamino) quinoline-3,8-dicarbonitrile]				0.047 µM	0.002 µM
[2H]C(Nc1cc(Cl)c2ncc(C#N)c(NCC(C)(C)C)c2c1)(c1ccc(F)cc1)c1nnnn1Cc1ccc(OC)cc1 (stereo not drawn) [Example 263, 8-chloro-6-(((4-fluorophenyl) (1-(4-methoxybenzyl)-1H-tetrazol-5-yl)methyl-d)amino)-4-(neopentylamino)quinoline-3-carbonitrile]				> 10 µM	0.733 µM
COC[C@H](C)Nc1c(C#N)cnc2c(Cl)cc(N[C@@H](c3ccccc3)c3cn(C4CCN(C(C)(C)C)CC4)nn3)cc12 [Example 557, 6-(((S)-(1-(1-(tert-butyl)piperidin-4-yl)-1H-1,2,3-triazol-4-yl)(phenyl)methyl)amino)-8-chloro-4-(((S)-1-methoxypropan-2-yl)amino)quinoline-3-carbonitrile]			0.999 µM	> 10 µM	
Cc1c(-c2ncco2)cccc1[C@H](Nc1cc(Cl)c2ncc(C#N)c(NCC(C)(C)C)c2c1)c1cn(C2(C(F)(F)F)CC2)nn1 [Example 1050, (S)-8-chloro-6-(((2-methyl-3-(oxazol-2-yl)phenyl)(1-(1-(trifluoromethyl)cyclopropyl)-1H-1,2,3-triazol-4-yl)methyl)amino)-4-(neopentylamino)quinoline-3-carbonitrile]	0.007 µM	0.202 µM			
N#Cc1cnc2c(Cl)cc(N[C@@H](c3ccc(F)cc3)c3c[nH]nn3)cc2c1NCc1ccsc1 [Example 419, (S)-8-chloro-6-(((4-fluorophenyl)(1H-1,2,3-triazol-4-yl)methyl)amino)-4-((thiophen-3-ylmethyl)amino)quinoline-3-carbonitrile]			0.392 µM	4.3 µM	
CC(C)(C)N1CCC(n2cc([C@@H](Nc3cc(Cl)c4ncc(C#N)c(Nc5ccc(F)c(Cl)c5)c4c3)c3ccc(Cl)cc3)nn2)CC1 [Example 803, (S)-6-(((1-(1-(tert-butyl)piperidin-4-yl)-1H-1,2,3-triazol-4-yl)(4-chlorophenyl)methyl)amino)-8-chloro-4-((3-chloro-4-fluorophenyl)amino)quinoline-3-carbonitrile]			0.007 µM	0.206 µM	
N#Cc1cnc2c(Cl)cc(N[C@@H](c3ccc(F)cc3)c3c[nH]nn3)cc2c1Nc1cnc(F)c(Cl)c1 [Example 425, (S)-8-chloro-4-((5-chloro-6-fluoropyridin-3-yl)amino)-6-(((4-fluorophenyl)(1H-1,2,3-triazol-4-yl)methyl)amino)quinoline-3-carbonitrile]			0.01 µM	0.438 µM	
CC(C)(C)N1CCC(n2cc([C@@H](Nc3cc(Cl)c4ncc(C#N)c(N)c4c3)c3ccccc3)nn2)CC1 [Example 504, (S)-4-amino-6-(((1-(1-(tert-butyl)piperidin-4-yl)-1H-1,2,3-triazol-4-yl)(phenyl)methyl)amino)-8-chloroquinoline-3-carbonitrile]			1.78 µM	8.51 µM	
[2H][C@](Nc1cc(Cl)c2ncc(C#N)c(NCC3(C(F)(F)F)CC3)c2c1)(c1ccc(F)cc1)c1cn(C2CC2)nn1 [Example 176]				0.809 µM	0.083 µM
COc1ccc(Nc2c(C#N)cnc3c(Cl)cc(N[C@@H](c4ccccc4)c4c[nH]nn4)cc23)cn1 [Example 490, (S)-8-chloro-4-((6-methoxypyridin-3-yl)amino)-6-((phenyl (1H-1,2,3-triazol-4-yl)methyl)amino) quinoline-3-carbonitrile]			0.172 µM	3.19 µM	
[2H][C@](Nc1cc(Cl)c2ncc(C#N)c(N[C@H](CC)c3ccccc3)c2c1)(c1ccc(F)cc1)c1cn(C(C)(C)C)nn1 [Example 253]				0.214 µM	0.016 µM

The next lines start with the values.

IC50 [1, 3]	EC50 [2, 4]	IC50 [1, 5]	EC50 [2, 6]	IC50 [1, 7]	Compound
0.005 µM	0.066 µM				[2H][C@@](Nc1cc(Br)c2ncc(C#N)c(N[C@H](CCC#N)c3ccccc3)c2c1)(c1cn(C2CC2)nn1)c1ccccc1Cl [Example 930, 8-bromo-6-(((S)-(2-chlorophenyl)(1-cyclopropyl-1H-1,2,3-triazol-4-yl)methyl-d)amino)-4-(((R)-3-cyano-1-phenylpropyl)amino) quinoline-3-carbonitrile]
		0.337 µM	3.07 µM		CC(C)(C)N1CCC(n2cc([C@@H](Nc3cc(Cl)c4ncc(C#N)c(N[C@H]5CCCOC5)c4c3)c3ccccc3)nn2)CC1 [Example 539, 6-(((S)-(1-(1-(tert-butyl)piperidin-4-yl)-1H-1,2,3-triazol-4-yl)(phenyl)methyl)amino)-8-chloro-4-(((S)-tetrahydro-2H-pyran-3-yl)amino)quinoline-3-carbonitrile]
0.011 µM	0.379 µM				Cc1c(-c2ccccn2)cccc1[C@H](Nc1cc(C#N)c2ncc(C#N)c(NCC(C)(C)C)c2c1)c1cn(C2(C(F)(F)F)CC2)nn1 [Example 1144, (S)-6-(((2-methyl-3-(pyridin-2-yl)phenyl)(1-(1-(trifluoromethyl)cyclopropyl)-1H-1,2,3-triazol-4-yl)methyl)amino)-4-(neopentylamino)quinoline-3,8-dicarbonitrile]
			> 10 µM	3.74 µM	[2H][C@](Nc1cc2c(NCC(C)(C)C)c(C#N)cnc2c(C)c1F)(c1ccc(F)cc1)c1cn(C2CC2)nn1 [Example 157, 6-(((1-cyclopropyl-1H-1,2,3-triazol-4-yl)(4-fluorophenyl)methyl-d)amino)-7-fluoro-8-methyl-4-(neopentylamino) quinoline-3-carbonitrile]
		0.03 µM	3.09 µM		C[C@@H](Nc1c(C#N)cnc2c(Cl)cc(N[C@@H](c3ccccc3)c3cn(C4CCN(C(C)(C)C)CC4)nn3)cc12)c1ccc(F)cc1 [Example 634, 6-(((S)-(1-(1-(tert-butyl)piperidin-4-yl)-1H-1,2,3-triazol-4-yl)(phenyl)methyl)amino)-8-chloro-4-(((R)-1-(4-fluorophenyl)ethyl)amino) quinoline-3-carbonitrile]
		0.588 µM	> 1 µM		Cc1nonc1C(Nc1cc(Cl)c2ncc(C#N)c(Nc3ccc(F)c(Cl)c3)c2c1)c1ccc(F)cc1 (stereo not drawn) [Example 805, 8-chloro-4-((3-chloro-4-fluorophenyl)amino)-6-(((4-fluorophenyl)(4-methyl-1,2,5-oxadiazol-3-yl)methyl)amino)quinoline-3-carbonitrile]
			0.116 µM	0.004 µM	[2H][C@@](Nc1cc(Cl)c2ncc(C#N)c(NCC(C)(C)C)c2c1)(c1cn(C2CC2)nn1)c1cccc(C#N)c1Cl [Example 289, (S)-8-chloro-6-(((2-chloro-3-cyanophenyl)(1-cyclopropyl-1H-1,2,3-triazol-4-yl)methyl-d)amino)-4-(neopentylamino) quinoline-3-carbonitrile]
		0.144 µM	3.9 µM		CC[C@H](C)Nc1c(C#N)cnc2c(Cl)cc(N[C@@H](c3ccccc3)c3cn(C4CCN(C(C)(C)C)CC4)nn3)cc12 [Example 587, 4-(((S)-sec-butyl)amino)-6-(((S)-(1-(1-(tert-butyl)piperidin-4-yl)-1H-1,2,3-triazol-4-yl)(phenyl)methyl)amino)-8-chloroquinoline-3-carbonitrile]
		0.687 µM	6.28 µM		CCN1CCC(n2cc([C@H](Nc3cc(Cl)c4ncc(C#N)c(Nc5ccc(F)c(Cl)c5)c4c3)c3ccc(F)cc3)nn2)CC1 [Example 849, (R)-8-chloro-4-((3-chloro-4-fluorophenyl)amino)-6-(((1-(1-ethylpiperidin-4-yl)-1H-1,2,3-triazol-4-yl)(4-fluorophenyl)methyl)amino) quinoline-3-carbonitrile]

Reference: patent US10316017B2, “COT modulators and methods of use thereof” (Gilead Sciences, Inc., priority 2015, dated 2019)
